The values below come from US20080194574A1, “Pyrazine Derivatives As Effective Compounds Against Infectious Diseases” (AXXIMA PHARMACEUTICALS AG, priority 2003, published 2008).

For the experiment, the target named is T1, viral kinase pUL-97 (Human cytomegalovirus, UniProt P16788).
T1 construct: The pUL-97 gene was cloned into a baculovirus vector; GST (glutathione S-transferase) (N); made in house; host or cells: Sf9 insect cells, baculovirus
The experiment can be described thus: UL97 kinase assay on Immobilon plate. The class given is biochemical. The following applies: inhibition of UL 97 kinase activity, read-out: Activity Class [A, B, C]. A digest of the protocol: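 Compound was titrated into a radiometric reaction of Sf9-expressed GST-UL97 kinase, incubated 1 h at 30 °C in Tris-HCl pH 7.5/MnCl2/DTT buffer before EDTA stop. MBP substrate and ATP (3 μM in the added assay buffer) were supplied with γ-[33P]ATP. Labelled product bound to Immobilon filter was washed and counted by scintillation.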

The mark [1] stands for this setting: class by IC50 / % inhibition at 10 or 100 μM.
Where [2] appears, read: class by IC50 / % inhibition at 10 μM or 100 μM.

Where two headings read alike, the source gives them in different places.

T1 sequence (P16788 whole entry): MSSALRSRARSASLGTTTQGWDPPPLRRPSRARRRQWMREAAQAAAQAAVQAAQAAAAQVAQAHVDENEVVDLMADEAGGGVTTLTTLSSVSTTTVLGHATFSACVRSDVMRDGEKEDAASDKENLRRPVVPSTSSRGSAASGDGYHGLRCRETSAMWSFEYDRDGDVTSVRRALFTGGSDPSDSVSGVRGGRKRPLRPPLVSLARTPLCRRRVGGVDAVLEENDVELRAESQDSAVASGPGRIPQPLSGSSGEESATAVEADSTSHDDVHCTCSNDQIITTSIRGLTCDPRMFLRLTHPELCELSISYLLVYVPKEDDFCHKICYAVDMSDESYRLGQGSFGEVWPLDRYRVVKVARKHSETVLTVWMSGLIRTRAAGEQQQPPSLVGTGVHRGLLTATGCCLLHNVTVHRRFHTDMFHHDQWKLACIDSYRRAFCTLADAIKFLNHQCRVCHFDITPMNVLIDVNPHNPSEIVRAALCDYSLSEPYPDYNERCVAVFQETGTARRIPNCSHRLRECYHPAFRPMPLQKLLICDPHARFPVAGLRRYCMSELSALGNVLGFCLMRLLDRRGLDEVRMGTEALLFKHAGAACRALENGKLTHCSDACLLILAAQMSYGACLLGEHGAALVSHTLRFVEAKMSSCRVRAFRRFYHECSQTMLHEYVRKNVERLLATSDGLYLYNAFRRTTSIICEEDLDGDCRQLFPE

For `OCC1CCCN1c1cncc(-c2cc3ccccc3o2)n1` (centres unmarked) [compound 24, [1-(6-Benzofuran-2-yl-pyrazin-2-yl)-pyrrolidin-2-yl]-methanol], the IC50 under setting [1] was in the range of 1 to 10 µM.
Take `COc1cccc(N2CCN(c3cncc(-c4ccc(F)cc4)n3)CC2)c1` [compound 367, 6′-(4-Fluoro-phenyl)-4-(3-methoxy-phenyl)-3,4,5,6-tetrahydro-2H-[1,2′]bipyrazinyl]: under setting [2], the IC50 lay in the range of 1 to 10 µM.
`COc1ccc(N2CCN(c3cncc(-c4ccc(C(C)(C)C)cc4)n3)CC2)cc1OC` [compound 263, 6′-(4-tert-Butyl-phenyl)-4-(3,4-dimethoxy-phenyl)-3,4,5,6-tetrahydro-2H-[1,2′]bipyrazinyl]: the IC50 under setting [2] lay in the range of 10 to 100 µM.
Regarding `Cc1cc(C)cc(-c2cncc(N3CCN(c4ccccc4)CC3)n2)c1` [compound 192, 6′-(3,5-Dimethyl-phenyl)-4-phenyl-3,4,5,6-tetrahydro-2H-[1,2′]bipyrazinyl], under setting [1], the IC50 is 10 to 100 µM.
Still for that read-out and setting: then `FC(F)(F)c1cccc(N2CCN(c3cncc(-c4cc5ccccc5s4)n3)CC2)c1` [compound 160, 6′-Benzo[b]thiophen-2-yl-4-(3-trifluoromethyl-phenyl)-3,4,5,6-tetrahydro-2H-[1,2′]bipyrazinyl], with 1 to 10 µM.
Turning to `COc1ccc(N2CCN(c3cncc(-c4ccccc4)n3)CC2)cc1` [compound 291, 4-(4-Methoxy-phenyl)-6′-phenyl-3,4,5,6-tetrahydro-2H-[1,2′]bipyrazinyl], the IC50 under setting [2] lay within 10 to 100 µM.
For the molecule `NC(=O)c1ccc(-c2cncc(N3CCN(c4ccccn4)CC3)n2)cc1` [Comp. 15, 4-(4-Pyridin-2-yl-3,4,5,6-tetrahydro-2H-[1,2′]bipyrazinyl-6′-yl)-benzamide], the IC50 under setting [1] was less than 1 µM.
On to `Cc1ccccc1-c1cncc(N2CCN(c3ccccc3)CC2)n1` [compound 94, 4-Phenyl-6′-o-tolyl-3,4,5,6-tetrahydro-2H-[1,2′]bipyrazinyl], for which, under setting [1], the IC50 was in the range of 10 to 100 µM.
Still for that read-out and setting: as for `COc1ccccc1N1CCN(c2cncc(-c3ccc(SC)cc3)n2)CC1` [compound 108, 4-(2-Methoxy-phenyl)-6′-(4-methylsulfanyl-phenyl)-3,4,5,6-tetrahydro-2H-[1,2′]bipyrazinyl], the figure is 1 to 10 µM.
On to `Fc1ccc(N2CCN(c3cncc(-c4ccc5ccccc5c4)n3)CC2)cc1` [compound 267, 4-(4-Fluoro-phenyl)-6′-naphthalen-2-yl-3,4,5,6-tetrahydro-2H-[1,2′]bipyrazinyl], for which, under setting [2], the IC50 is less than 1 µM.
For the molecule `CC(=O)c1ccccc1-c1cncc(N2CCN(c3ccc(F)cc3F)CC2)n1` [compound 141, 1-{2-[4-(2,4-Difluoro-phenyl)-3,4,5,6-tetrahydro-2H-[1,2′]bipyrazinyl-6′-yl]-phenyl}-ethanone], under setting [1], the IC50 is 1 to 10 µM.
With `Cc1cc(C)cc(-c2cncc(N3CCN(c4ccncc4)CC3)n2)c1` [compound 165, 6′-(3,5-Dimethyl-phenyl)-4-pyridin-4-yl-3,4,5,6-tetrahydro-2H-[1,2′]bipyrazinyl], under setting [1], the IC50 is 1 to 10 µM.
Take `CSc1ccc(-c2cncc(N3CCN(c4ccc(Cl)c(Cl)c4)CC3)n2)cc1` [compound 372, 4-(3,4-Dichloro-phenyl)-6′-(4-methylsulfanyl-phenyl)-3,4,5,6-tetrahydro-2H-[1,2′]bipyrazinyl]: the IC50 under setting [2] was 10 to 100 µM.
The same measure, in the same setting: as for `CSc1ccc(-c2cncc(N3CCN(c4ccc(C)c(C)c4)CC3)n2)cc1` [compound 359, 4-(3,4-Dimethyl-phenyl)-6′-(4-methylsulfanyl-phenyl)-3,4,5,6-tetrahydro-2H-[1,2′]bipyrazinyl], the figure is 1 to 10 µM.
With `COc1ccc2cc(-c3cncc(N4CCN(c5ccc(OC)c(OC)c5)CC4)n3)ccc2c1` [compound 169, 4-(3,4-Dimethoxy-phenyl)-6′-(6-methoxy-naphthalen-2-yl)-3,4,5,6-tetrahydro-2H-[1,2′]bipyrazinyl], the IC50 under setting [1] lay within 1 to 10 µM.
As for `CCOc1ccc(-c2cncc(N3CCN(c4ccccc4)CC3)n2)cc1` [compound 121, 6′-(4-Ethoxy-phenyl)-4-phenyl-3,4,5,6-tetrahydro-2H-[1,2′]bipyrazinyl], the IC50 under setting [1] was in the range of 1 to 10 µM.
Take `CSc1ccc(-c2cncc(N3CCN(c4ccc(C(F)(F)F)cc4)CC3)n2)cc1` [compound 311, 6′-(4-Methylsulfanyl-phenyl)-4-(4-trifluoromethyl-phenyl)-3,4,5,6-tetrahydro-2H-[1,2′]bipyrazinyl]: under setting [2], the IC50 was 1 to 10 µM.
For `CC(=O)c1cccc(-c2cncc(N3CCN(c4ccccn4)CC3)n2)c1` [compound 307, 1-[3-(4-Pyridin-2-yl-3,4,5,6-tetrahydro-2H-[1,2′]bipyrazinyl-6′-yl)-phenyl]-ethanone], the IC50 under setting [2] lay in the range of 1 to 10 µM.
Still for that read-out and setting: then `Cc1ccc(N2CCN(c3cncc(-c4ccc5ccccc5c4)n3)CC2)cc1C` [compound 335, 4-(3,4-Dimethyl-phenyl)-6′-naphthalen-2-yl-3,4,5,6-tetrahydro-2H-[1,2′]bipyrazinyl], with 1 to 10 µM; and `CN(C)c1ccc(-c2cncc(N3CCN(c4ccc(Cl)cc4)CC3)n2)cc1` [compound 340, {4-[4-(4-Chloro-phenyl)-3,4,5,6-tetrahydro-2H-[1,2′]bipyrazinyl-6′-yl]-phenyl}-dimethyl-amine], with 10 to 100 µM.
Regarding `COc1ccccc1N1CCN(c2cncc(-c3ccc(F)c(Cl)c3)n2)CC1` [compound 242, 6′-(3-Chloro-4-fluoro-phenyl)-4-(2-methoxy-phenyl)-3,4,5,6-tetrahydro-2H-[1,2′]bipyrazinyl], the IC50 under setting [2] lay in the range of 10 to 100 µM.
For `CC(=O)c1ccc(-c2cncc(N3CCN(c4ccccc4F)CC3)n2)cc1` [compound 130, 1-{4-[4-(2-Fluoro-phenyl)-3,4,5,6-tetrahydro-2H-[1,2′]bipyrazinyl-6′-yl]-phenyl}-ethanone], under setting [1], the IC50 lay in the range of 1 to 10 µM.
With `Clc1cccc(N2CCN(c3cncc(-c4csc5ccccc45)n3)CC2)c1` [compound 239, 6′-Benzo[b]thiophen-3-yl-4-(3-chloro-phenyl)-3,4,5,6-tetrahydro-2H-[1,2′]bipyrazinyl], under setting [2], the IC50 fell in the range of 10 to 100 µM.
Regarding `CCOc1ccc(-c2cncc(N3CCN(c4ccncc4)CC3)n2)cc1` [compound 260, 6′-(4-Ethoxy-phenyl)-4-pyridin-4-yl-3,4,5,6-tetrahydro-2H-[1,2′]bipyrazinyl], the IC50 under setting [2] was in the range of 1 to 10 µM.
Take `CSc1ccccc1-c1cncc(N2CCN(c3ccccn3)CC2)n1` [compound 342, 6′-(2-Methylsulfanyl-phenyl)-4-pyridin-2-yl-3,4,5,6-tetrahydro-2H-[1,2′]bipyrazinyl]: the IC50 under setting [2] was in the range of 10 to 100 µM.
Same read-out and setting: as for `CCOc1ccc(-c2cncc(N3CCN(c4ccc(C)cc4)CC3)n2)cc1` [compound 266, 6′-(4-Ethoxy-phenyl)-4-p-tolyl-3,4,5,6-tetrahydro-2H-[1,2′]bipyrazinyl], the figure is 10 to 100 µM.
Turning to `Cc1ccc(N2CCN(c3cncc(-c4cc(C)cc(C)c4)n3)CC2)cc1` [compound 177, 6′-(3,5-Dimethyl-phenyl)-4-p-tolyl-3,4,5,6-tetrahydro-2H-[1,2′]bipyrazinyl], the IC50 under setting [1] was 10 to 100 µM.
As to `Fc1ccc(N2CCN(c3cncc(-c4ccc(-c5ccccc5)c(F)c4)n3)CC2)cc1` [compound 268, 6′-(2-Fluoro-biphenyl-4-yl)-4-(4-fluoro-phenyl)-3,4,5,6-tetrahydro-2H-[1,2′]bipyrazinyl], under setting [2], the IC50 lay in the range of 10 to 100 µM.
In the case of `CCOc1ccccc1-c1cncc(N2CCN(c3ccc(C)cc3)CC2)n1` [compound 175, 6′-(2-Ethoxy-phenyl)-4-p-tolyl-3,4,5,6-tetrahydro-2H-[1,2′]bipyrazinyl], the IC50 under setting [1] was 10 to 100 µM.
